Measured values from patent publication US20260262643A1, “HERBICIDAL BENZOXAZINES” (FMC CORPORATION, priority 2022, published 2026).

Key:
ragweed [1] = assay: Test C postemergence; type: in vivo, Ambrosia artemisiifolia; settings: Postemergence, 1000 g ai/ha, 10 days, visual 0 to 100 scale (0 no effect, 100 complete control)
Procedure, shortened: (§1)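 Pre: seeds in loam/sand, directed soil spray. Post: 1–2 leaf plants, 2–10 cm. Cmpd in non-phytotoxic solvent + surfactant. Greenhouse 10 d; visual rating vs untreated, 0 = none, 100 = complete control.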

pigweed, palmer [2] = assay: Test C preemergence; type: in vivo, Amaranthus palmeri; settings: Preemergence, 1000 g ai/ha; visual rating after 10 days, 0 to 100 scale (0 no effect, 100 complete control)
Procedure, shortened: as §1

galium = assay: Test C postemergence; type: in vivo, Galium aparine; settings: Postemergence, 1000 g ai/ha, 10 days, visual 0 to 100 scale (0 no effect, 100 complete control)
Procedure, shortened: as §1

barnyardgrass [3] = assay: Test C postemergence; type: in vivo, Echinochloa crusgalli; settings: Postemergence, 1000 g ai/ha; 0 to 100 scale, 0 no effect, 100 complete control
Procedure, shortened: as §1

horseweed = assay: Test C postemergence; type: in vivo, Erigeron canadensis; settings: Postemergence, 1000 g ai/ha, 10 days, visual 0 to 100 scale (0 no effect, 100 complete control)
Procedure, shortened: as §1

ryegrass, Italian [4] = assay: Test C postemergence; type: in vivo, Lolium multiflorum; settings: Postemergence, 1000 g ai/ha, 10 days, visual 0 to 100 scale (0 no effect, 100 complete control)
Procedure, shortened: as §1

green foxtail [5] = assay: Test C postemergence; type: in vivo, Setaria viridis; settings: Postemergence, 1000 g ai/ha, 10 days, visual 0 to 100 scale (0 no effect, 100 complete control)
Procedure, shortened: as §1

kochia [6] = assay: Test C preemergence; type: in vivo, Bassia scoparia; settings: Preemergence, 1000 g ai/ha; visual rating after 10 days, 0 to 100 scale (0 no effect, 100 complete control)
Procedure, shortened: as §1

barnyardgrass [7] = assay: Test C preemergence; type: in vivo, Echinochloa crusgalli; settings: Preemergence, 1000 g ai/ha; visual rating after 10 days, 0 to 100 scale (0 no effect, 100 complete control)
Procedure, shortened: as §1

ragweed [8] = assay: Test C preemergence; type: in vivo, Ambrosia artemisiifolia; settings: Preemergence, 1000 g ai/ha; visual rating after 10 days, 0 to 100 scale (0 no effect, 100 complete control)
Procedure, shortened: as §1

ryegrass, Italian [9] = assay: Test C preemergence; type: in vivo, Lolium multiflorum; settings: Preemergence, 1000 g ai/ha; visual rating after 10 days, 0 to 100 scale (0 no effect, 100 complete control)
Procedure, shortened: as §1

blackgrass [10] = assay: Test C preemergence; type: in vivo, Alopecurus myosuroides; settings: Preemergence, 1000 g ai/ha; visual rating after 10 days, 0 to 100 scale (0 no effect, 100 complete control)
Procedure, shortened: as §1

ducksalad = assay: Test D flooded paddy test; type: in vivo, Heteranthera limosa; settings: 250 g ai/ha, applied to paddy water, visual rating after 13 to 14 days, scale 0 to 100 (0 no effect, 100 complete control)
Procedure, shortened: (§2)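 Visual ratings from 0, meaning no effect, to 100, meaning complete control, were assigned against untreated controls 13 to 14 days after compounds were added to the floodwater of pots kept 3 cm deep, with plants at the 2-leaf stage.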

blackgrass [11] = assay: Test C postemergence; type: in vivo, Alopecurus myosuroides; settings: Postemergence, 1000 g ai/ha, 10 days, visual 0 to 100 scale (0 no effect, 100 complete control)
Procedure, shortened: as §1

barnyardgrass [12] = assay: Test D flooded paddy test; type: in vivo, Echinochloa crus-galli; settings: 250 g ai/ha, applied to paddy water, visual rating after 13 to 14 days, scale 0 to 100 (0 no effect, 100 complete control)
Procedure, shortened: as §2

rice = assay: Test D flooded paddy test; type: in vivo, Oryza sativa; settings: 250 g ai/ha, applied to paddy water, visual rating after 13 to 14 days, scale 0 to 100 (0 no effect, 100 complete control)
Procedure, shortened: as §2

kochia [13] = assay: Test C postemergence; type: in vivo, Bassia scoparia; settings: Postemergence, 1000 g ai/ha, 10 days, visual 0 to 100 scale (0 no effect, 100 complete control)
Procedure, shortened: as §1

pigweed, palmer [14] = assay: Test C postemergence; type: in vivo, Amaranthus palmeri; settings: Postemergence, 1000 g ai/ha, 10 days, visual 0 to 100 scale (0 no effect, 100 complete control)
Procedure, shortened: as §1

sedge, umbrella = assay: Test D flooded paddy test; type: in vivo, Cyperus difformis; settings: 250 g ai/ha, applied to paddy water, visual rating after 13 to 14 days, scale 0 to 100 (0 no effect, 100 complete control)
Procedure, shortened: as §2

green foxtail [15] = assay: Test C preemergence; type: in vivo, Setaria viridis; settings: Preemergence, 1000 g ai/ha; visual rating after 10 days, 0 to 100 scale (0 no effect, 100 complete control)
Procedure, shortened: as §1

Q: With `Cc1nccc(-c2cccc(C(=O)N3C[C@H](C)Oc4c(C)cccc43)c2)n1` [Compound 250] as the compound, how does the “Plant response rating, Ragweed” value (ragweed [1]) read?
A: 50

Q: And the “Plant response rating, Pigweed, Palmer” value (pigweed, palmer [2])?
A: 80

Q: What about the “Plant response rating, Galium” value (galium) of the same compound?
A: 50

Q: What about the “Plant response rating, Barnyardgrass” value (barnyardgrass [3]) of the same compound?
A: 50

Q: And the “Plant response rating, Horseweed” value (horseweed)?
A: 0

Q: What about the “Plant response rating, Ryegrass, Italian” value (ryegrass, Italian [4]) of the same compound?
A: 40

Q: What about the “Plant response rating, Foxtail, Green” value (green foxtail [5]) of the same compound?
A: 80

Q: What about the “Plant response rating, Kochia” value (kochia [6]) of the same compound?
A: 80

Q: What about the “Plant response rating, Barnyardgrass” value (barnyardgrass [7]) of the same compound?
A: 90

Q: And the “Plant response rating, Ragweed” value (ragweed [8])?
A: 0

Q: What about the “Plant response rating, Ryegrass, Italian” value (ryegrass, Italian [9]) of the same compound?
A: 90

Q: What about the “Plant response rating, Blackgrass” value (blackgrass [10]) of the same compound?
A: 30

Q: And the “Plant response rating, Ducksalad (Flood)” value (ducksalad)?
A: 0

Q: What about the “Plant response rating, Blackgrass” value (blackgrass [11]) of the same compound?
A: 20

Q: What about the “Plant response rating, Barnyardgrass (Flood)” value (barnyardgrass [12]) of the same compound?
A: 0

Q: And the “Plant response rating, Rice (Flood)” value (rice)?
A: 0

Q: And the “Plant response rating, Kochia” value (kochia [13])?
A: 70

Q: And the “Plant response rating, Pigweed, Palmer” value (pigweed, palmer [14])?
A: 50

Q: What about the “Plant response rating, Sedge, Umbrella (Flood)” value (sedge, umbrella) of the same compound?
A: 0

Q: What about the “Plant response rating, Foxtail, Green” value (green foxtail [15]) of the same compound?
A: 100
